The source of these data is patent US20240376126A1, “PRMT5 INHIBITOR AND THE USE THEREOF” (CYTOSINLAB THERAPEUTICS CO., LTD., priority 2022, published 2024).

The target of one assay is PRMT5 MTA (Homo sapiens (Human), UniProt O14744). As to the kind of experiment: PRMT5 inhibitory activity assay in vitro, enzyme solution with MTA ([3H]-SAM Flashplate). The assay is classed as biochemical. The note with it: MTA 2.0 um; read-out: Enzyme activity inhibition rate PRMT5 MTA (2.0 um) IC50 (nm). From the text: Biological Test Example 1 PRMT5 Inhibitory Activity Assay In Vitro
PRMT5 (Active Motiv, catalog number 31921), [^3H]—SAM (Perkin Elmer, catalog number NET155V001MC), SAM (Sigma, catalog number A7007), MTA (Sigma, catalog number D5011), SAH (Sigma, catalog number A9384), 384-well plate (Perkin Elmer, catalog number 6007299), Echo 550 (manufacturer: Labcyte, model: Echo 550), 384-well Flashplate (manufacturer: Perkin Elmer, model: SMP410A001PK)
• (1) 1× Assay buffer (modified Tris buffer) was configured. • (2) Dilute compound: the compound was dissolved in 100% DMSO and the compound solution was added to a 384-well plate using Echo 550. • (3) Configure enzyme solution: PRMT5 was added to 1× assay buffer to prepare enzyme solution 1; PRMT5 and MTA was added to 1× assay buffer to prepare enzyme solution 2. • (4) Configure substrate solution: peptide segments and [3H]—SAM was added to 1× assay buffer. • (5) 15 μL of enzyme solution was added to the 384-well plate, and 15 μL of 1× assay buffer was added to the negative control well, and incubated at room temperature for 30 minutes. • (6) 15 μL of substrate solution was added to each well, and incubated at room temperature for 90 minutes. • (7) Configure termination reaction solution: pre-cooled SAM was added to 1× assay buffer. • (8) 10 μL of termination reaction solution was added to each well to terminate the reaction. • (9) 25 μL/well of the mixed solution was transferred to Flashplate and incubated for 1 hour at room temperature. • (10) the Flashplate three was washed times with dH2O+0.1% Tween-20 solution. • (11) the radiometric values was readed with Microbeta.
• (1) The raw data were converted to % inhibition according to Equation 1.
%inhibition=(Max−Signal)/(Max−Min)*100 Equation 1: • (2) the % inhibition data were entered into XL-Fit Equation 2 to obtain IC50 value:
Y=Bottom+(Top−Bottom)/(1+(IC50/X)[…]) Equation 2: • wherein, Y is the % inhibition, and X is the concentration of the compound.

For the next assay, the system named is HCT116 MTAP WT cells. As to the kind of experiment: Proliferation inhibition of HCT116 cells in vitro (CellTiter Glo, 6 days). The assay is classed as cell-based. The note with it: Homo sapiens, HCT-116, 144 h, read-out: Cell proliferation inhibition rate HCT116 MTAP WT IC50 (nm). In general terms: Cellular ATP, detected with luciferase, serves as a proxy for viable cell number.

The subject of assay [1] is HCT116-MTAP-KO (MTAP null) cells. Put plainly: Proliferation inhibition of HCT116 MTAP-KO cells in vitro (CellTiter Glo, 6 days). The assay is classed as cell-based. Particulars: 144 h, read-out: Cell proliferation inhibition rate HCT116-MTAP null IC50 (nm).

Where two headings read alike, the source gives them in different places.

PRMT5 MTA, sequence (O14744 whole entry, looked up): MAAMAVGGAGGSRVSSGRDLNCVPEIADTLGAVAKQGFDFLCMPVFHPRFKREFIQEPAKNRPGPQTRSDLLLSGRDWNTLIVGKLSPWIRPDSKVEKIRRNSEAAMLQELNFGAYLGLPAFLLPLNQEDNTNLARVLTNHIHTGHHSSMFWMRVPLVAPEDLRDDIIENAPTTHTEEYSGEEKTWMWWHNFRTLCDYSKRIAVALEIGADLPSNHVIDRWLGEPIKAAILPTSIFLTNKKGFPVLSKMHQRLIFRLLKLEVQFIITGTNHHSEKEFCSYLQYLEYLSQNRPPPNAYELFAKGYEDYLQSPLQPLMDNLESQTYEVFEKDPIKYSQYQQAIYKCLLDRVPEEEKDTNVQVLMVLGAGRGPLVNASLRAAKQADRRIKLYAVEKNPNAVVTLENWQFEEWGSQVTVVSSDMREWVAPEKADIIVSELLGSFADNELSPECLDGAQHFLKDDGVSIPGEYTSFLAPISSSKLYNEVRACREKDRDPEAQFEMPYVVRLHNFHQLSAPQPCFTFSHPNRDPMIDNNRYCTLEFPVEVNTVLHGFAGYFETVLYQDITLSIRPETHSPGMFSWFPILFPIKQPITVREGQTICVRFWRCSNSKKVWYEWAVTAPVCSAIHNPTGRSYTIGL
PRMT5 MTA, sequence (Q9BQA1 whole entry partner, looked up): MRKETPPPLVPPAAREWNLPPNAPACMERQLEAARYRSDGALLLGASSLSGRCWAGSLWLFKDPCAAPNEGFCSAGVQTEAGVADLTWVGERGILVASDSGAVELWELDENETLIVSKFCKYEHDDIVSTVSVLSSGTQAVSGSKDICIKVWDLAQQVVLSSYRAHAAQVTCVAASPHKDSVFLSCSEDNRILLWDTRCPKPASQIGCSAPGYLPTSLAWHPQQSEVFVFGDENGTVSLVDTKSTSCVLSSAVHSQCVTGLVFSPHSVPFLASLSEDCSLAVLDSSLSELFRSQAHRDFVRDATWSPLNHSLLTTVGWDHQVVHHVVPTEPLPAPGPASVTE

Regarding `CC(c1ncccn1)N(Cc1cn2ccccc2n1)C(=O)c1ccc2nc(N)c3c(c2c1)CCC3` (stereo not drawn) [Example 1, 4-Amino-N-(pyrazolo[1,5-a]pyridin-2-ylmethyl)-N-(1-(pyrimidin-2-yl)ethyl)-2,3-dihydro-1H-cyclopentadieno[c]quinolin-8-carboxamide], the values for the IC50 (at PRMT5 MTA; in the assay with HCT116 MTAP WT cells; in assay [1]) were 0.0051 µM, 1 to 10 µM and less than 0.1 µM, respectively.
With `CCN(Cc1cn2ccccc2n1)C(=O)c1cc2c(cc1F)nc(N)c1cnn(C)c12` [Example 2], the values for the IC50 (at PRMT5 MTA; in the assay on HCT116 MTAP WT cells; in assay [1]) were 0.003 µM, 1 to 10 µM and less than 0.1 µM, respectively.
Turning to `CC(C)CN(Cc1cn2cc(C(F)(F)F)ccc2n1)C(=O)c1ccc2nc(N)c3cnn(C)c3c2c1` [Example 4], the IC50 was 0.0017 µM at PRMT5 MTA, 1 to 10 µM with HCT116 MTAP WT cells and less than 0.1 µM in assay [1].
For the compound `COCC(C1CC1)N(Cc1nc2ccccc2[nH]1)C(=O)c1ccc2nc(N)c(C)cc2c1` (stereo not drawn) [Example 127], the IC50 on PRMT5 MTA is 0.0037 µM; in the assay with HCT116 MTAP WT cells, 1 to 10 µM; in assay [1], less than 0.1 µM.
In the case of `CC(C)CN(Cc1nc2ccc(C(F)(F)F)cc2[nH]1)C(=O)c1ccc2nc(N)c3cnn(C)c3c2c1` [Example 132], the IC50 at PRMT5 MTA was 0.0044 µM; in the assay with HCT116 MTAP WT cells it was 1 to 10 µM; in assay [1], less than 0.1 µM.
For `COCC(C1CC1)N(Cc1nc2ccccc2s1)C(=O)c1ccc2nc(N)c3c(c2c1)CCC3` (stereo not drawn) [Example 147] the same measures were 0.0029 µM, 1 to 10 µM and 0.1 to 1 µM.
Turning to `Cc1cc2cc(C(=O)N(Cc3nc4ccccc4s3)C34CC(C3)C4)ccc2nc1N` [Example 148], the IC50 at PRMT5 MTA was 0.0026 µM.
As to `COCC(C)N(Cc1cn2ccccc2n1)C(=O)c1cc2c(cc1F)nc(N)c1c(C)ncn12` (stereo not drawn) [Example 271], the IC50 was 1 to 10 µM with HCT116 MTAP WT cells and less than 0.1 µM in assay [1] (HCT116-MTAP null).
For `CCN(Cc1cn2c(C)cccc2n1)C(=O)c1cc2c(cc1F)nc(N)c1c(C)ncn12` [Example 272] the same measures were 1 to 10 µM and 0.1 to 1 µM.
Regarding `COC1CC(N(Cc2cn3ccccc3n2)C(=O)c2cc3c(cc2F)nc(N)c2c(C)ncn23)C1` (stereo not drawn) [Example 273], the values for the IC50 (in the assay with HCT116 MTAP WT cells; in assay [1] (HCT116-MTAP null)) were 1 to 10 µM and less than 0.1 µM, respectively.
For `CCN(Cc1cn2ccccc2n1)C(=O)c1cc2c(cc1F)nc(N)c1c(C)ncn12` [Example 274] the same measures were 1 to 10 µM and 0.1 to 1 µM.
The corresponding values for `Cc1ncc2c(N)nc3cc(F)c(C(=O)N(Cc4nc5ccc(C(F)(F)F)cc5[nH]4)CC(C)C)cc3n12` [Example 276] are 1 to 10 µM and 0.1 to 1 µM.
On to `Cc1ncn2c1c(N)nc1cc(F)c(C(=O)N(Cc3cn4ccccc4n3)CC(C)C)cc12` [Example 277], for which the IC50 in the assay with HCT116 MTAP WT cells is 1 to 10 µM; in assay [1] (HCT116-MTAP null) it was less than 0.1 µM.
As to `COC1CCCC1N(Cc1cn2ccccc2n1)C(=O)c1cc2c(cc1F)nc(N)c1c(C)ncn12` (stereo not drawn) [Example 278], the IC50 in the assay on HCT116 MTAP WT cells was 1 to 10 µM; in assay [1] (HCT116-MTAP null) it was less than 0.1 µM.
For `CCN(Cc1cn2ccccc2n1)C(=O)c1ccc2nc(N)c3ncc(C)n3c2c1` [Example 279] the same measures were 1 to 10 µM and 0.1 to 1 µM.
Consider `Cc1ncn2c1c(N)nc1cc(F)c(C(=O)N(Cc3cn4cc(C(F)(F)F)ccc4n3)C3CCC3O)cc12` (stereo not drawn) [Example 280], for which the figures for the IC50 (in the assay on HCT116 MTAP WT cells; in assay [1] (HCT116-MTAP null)) were 1 to 10 µM and 0.1 to 1 µM, respectively.
The corresponding values for `Cc1ncn2c1c(N)nc1cc(F)c(C(=O)N(Cc3cn4cc(C(F)(F)F)ccc4n3)CC(C)C)cc12` [Example 282] are 1 to 10 µM and less than 0.1 µM.
As for `COC1CCC1N(Cc1cn2cc(C(F)(F)F)ccc2n1)C(=O)c1cc2c(cc1F)nc(N)c1c(C)ncn12` (stereo not drawn) [Example 284], the results for the IC50 (in the assay on HCT116 MTAP WT cells; in assay [1] (HCT116-MTAP null)) were 0.1 to 1 µM and less than 0.1 µM, respectively.
The corresponding values for `COCC(C)N(Cc1cn2cc(C(F)(F)F)ccc2n1)C(=O)c1cc2c(cc1F)nc(N)c1c(C)ncn12` (stereo not drawn) [Example 285, 4-Amino-7-fluoro-N-(1-methoxypropan-2-yl)-3-methyl-N-((6-(trifluoromethyl)imidazolo[1,2-a]pyridin-2-yl)methyl)imidazo[1,5-a]quinoxalin-8-carboxamide] are 0.1 to 1 µM and less than 0.1 µM.
For `COC1CCC1N(Cc1cn2cc(C(F)(F)F)ccc2n1)C(=O)c1ccc2nc(N)c3c(C)ncn3c2c1` (stereo not drawn) [Example 286] the same measures were 1 to 10 µM and less than 0.1 µM.
The corresponding values for `COCC(C)N(Cc1cn2cc(C(F)(F)F)ccc2n1)C(=O)c1ccc2nc(N)c3c(C)ncn3c2c1` (stereo not drawn) [Example 288] are 1 to 10 µM and less than 0.1 µM.
For the compound `Cc1cnn2c1c(N)nc1ccc(C(=O)N(Cc3cn4cc(C(F)(F)F)ccc4n3)CC(C)C)cc12` [Example 290], the IC50 is 1 to 10 µM with HCT116 MTAP WT cells and less than 0.1 µM in assay [1] (HCT116-MTAP null).
For the compound `Cc1ncn2c1c(N)nc1ccc(C(=O)N(c3cnn(C)c3)C(C)c3cn4cc(C(F)(F)F)ccc4n3)cc12` (stereo not drawn) [Example 292], the IC50 with HCT116 MTAP WT cells lay within 1 to 10 µM; in assay [1] (HCT116-MTAP null) it was 0.1 to 1 µM.
The corresponding values for `Cc1ncn2c1c(N)nc1ccc(C(=O)N(Cc3cn4cc(C(F)(F)F)ccc4n3)c3cnn(C)c3)cc12` [Example 293] are 1 to 10 µM and 0.1 to 1 µM.
For `COC1CCCC1N(Cc1cn2cc(C(F)(F)F)ccc2n1)C(=O)c1ccc2nc(N)c3c(C)ncn3c2c1` (stereo not drawn) [Example 294] the same measures were 1 to 10 µM and less than 0.1 µM.
For `Cc1ncn2c1c(N)nc1ccc(C(=O)N(CC(C)C)C(C)c3cn4cc(C(F)(F)F)ccc4n3)cc12` (stereo not drawn) [Example 296] the same measures were 1 to 10 µM and 0.1 to 1 µM.
On to `Cc1ncn2c1c(N)nc1ccc(C(=O)N(Cc3cn4ccccc4n3)CC(C)C)cc12` [Example 297], for which the IC50 with HCT116 MTAP WT cells was 1 to 10 µM; in assay [1] (HCT116-MTAP null) it was less than 0.1 µM.
Take `CCN(C(=O)c1ccc2nc(N)c3c(C)ncn3c2c1)C(C)c1cn2ccccc2n1` (stereo not drawn) [Example 298]: the IC50 lay within 1 to 10 µM in the assay on HCT116 MTAP WT cells and 0.1 to 1 µM in assay [1] (HCT116-MTAP null).
The corresponding values for `Cc1ncn2c1c(N)nc1ccc(C(=O)N(Cc3cn4cc(C(F)(F)F)ccc4n3)CC(C)C)cc12` [Example 299] are 1 to 10 µM and less than 0.1 µM.
For the compound `Cc1ncc2c(N)nc3ccc(C(=O)N(Cc4cn5cc(C(F)(F)F)ccc5n4)c4c(F)cnn4C)cc3n12` [Example 300], the IC50 in the assay with HCT116 MTAP WT cells was 1 to 10 µM; in assay [1] (HCT116-MTAP null) it was less than 0.1 µM.
The corresponding values for `Cc1ncc2c(N)nc3cnc(C(=O)N(Cc4cn5cc(C(F)(F)F)ccc5n4)c4c(F)cnn4C)cc3n12` [Example 302] are 0.1 to 1 µM and less than 0.1 µM.
As for `Cc1ncc2c(N)nc3cc(F)c(C(=O)N(Cc4cn5cc(C(F)F)ccc5n4)c4c(F)cnn4C)cc3n12` [Example 303], the IC50 in the assay on HCT116 MTAP WT cells is 0.1 to 1 µM; in assay [1] (HCT116-MTAP null), less than 0.1 µM.
For `CC(c1ncccn1)N(Cc1nc2cnccc2s1)C(=O)c1ccc2nc(N)c3c(c2c1)COC3` (stereo not drawn) [Example 304, 4-Amino-N-(1-(pyrimidin-2-yl)ethyl)-N-(thiazolo[4,5-c]pyridin-2-ylmethyl)-1,3-dihydrofurano[3,4-c]quinolin-8-carboxamide] the same measures were 0.1 to 1 µM and less than 0.1 µM.
The corresponding values for `Cc1nn(C)cc1N(Cc1cn2cc(C(F)(F)F)ccc2n1)C(=O)c1ccc2nc(N)c3c(c2c1)CO[C@@H]3C` [Example 305, (3R)-4-Amino-N-(1,3-dimethylpyrazol-4-yl)-3-methyl-N-[[6-(trifluoromethyl)imidazo[1,2-a]pyridin-2-yl]methyl]-1,3-dihydrofurano[3,4-c]quinolin-8-carboxamide] are 1 to 10 µM and less than 0.1 µM.
As to `Cc1nn(C)cc1N(Cc1cn2cc(C(F)(F)F)ccc2n1)C(=O)c1ccc2nc(N)c3c(c2c1)COC3C` (stereo not drawn) [Example 313, 4-Amino-N-(1,3-dimethylpyrazol-4-yl)-3-methyl-N-[[6-(trifluoromethyl)imidazolo[1,2-a]pyridin-2-yl]methyl]-1,3-dihydrofurano[3,4-c]quinolin-8-carboxamide], the IC50 was 1 to 10 µM in the assay on HCT116 MTAP WT cells and less than 0.1 µM in assay [1] (HCT116-MTAP null).
